Series [1] in a line: Liver Microsome Stability Assay, human. The note with it: human liver microsomes. The class given is in vitro ADME. On the procedure: Two separate experiments were performed as follows.
With Cofactors (NADPH): 25 μL of 10 mM NADPH was added to the incubations. The final concentrations of microsomes and NADPH were 0.5 mg/mL and 1 mM, respectively. The final concentration of microsomes was 0.5 mg/mL. The mixture was pre-warmed at 37° C. for 10 minutes. The reaction was started with the addition of 2.5 μL of 100 μM control compound or test compound solutions. Verapamil was used as positive control in this study. The final concentration of test compound or control compound was 1 μM. The incubation solution was incubated in water batch at 37° C. Aliquots of 25 μL were taken from the reaction solution at 0.5, 5, 15, 30 and 60 minutes. The reaction was stopped by the addition of 5 volumes of cold acetonitrile with IS (200 nM caffeine and 100 nM tolbutamide). Samples were centrifuged at 3, 220 g for 40 minutes. Aliquot of 100 μL of the supernatant was mixed with 100 μL of ultra-pure H2O and then used for LC-MS/MS analysis.
Data Analysis: All calculations were carried out using Microsoft Excel. Peak areas were determined from extracted ion chromatograms. The slope value, k, was determined by linear regression of the natural logarithm of the remaining percentage of the parent drug vs. incubation time curve.
The in vitro half-life (in vitro t1/2) was determined from the slope value:
Conversion of the in vitro t1/2 (min) into the in vitro intrinsic clearance (in vitro CLint, in μL/min/mg protein) was done using the following equation (mean of duplicate determinations): […]
The calculations of Scaled-up CLint(mL/min/kg), Predicted CLH (mL/min/kg) and EH were done using the following equation:
Scaled-up CLint=(0.693/t1/2)×(1/(microsomal protein concentration(0.5 mg/mL)))×Scaling Factors;Predicted CLH=(QH×Scaled-up CLint×fub)/(QH+Scaled-up CLint×fub);EH=Predicted CLH/QH
where QH is the hepatic blood flow (mL/min/kg) (Table 32), • fub is the fraction of unbound drug in plasma which is assumed to be 1.
“+++” indicates a Clint value less than 10 mL/min/Kg, […] indicates a Clint between 10 and 20 mL/min/Kg, and “+” indicates a Clint above 20 mL/min/Kg.

Series [2] has as its system CYP1A1 mRNA levels in HT26. Briefly: CYP1A1 Gene Expression Assay, mouse CRC cell line HT26. The class given is cell-based. As to conditions: for IC50: Mus musculus; for Mouse CYP1A1 % eff: efficacy given with the IC50. On the procedure: Human and mouse colorectal cancer (CRC) cell lines, HT29 and HT26 respectively, American Type Culture Collection (ATCC) are plated in a sterile tissue culture treated 96-well plate (ThermoFisher) at 8.0×10^5 cells per well, and grown overnight at 37° C., 5% CO2 in DMEM complete (Gibco) in order to achieve confluence. After the incubation medium is aspirated off the cell monolayers, tissues are then washed with 200 μL of warmed PBS solution, and subsequently 190 μL of pre-warmed growth medium is added to each well. AhR antagonist of interest are diluted at a 20×concentration in growth medium containing 2% DMSO, and 10 μL of compound solutions are added to respective wells in triplicate. After 1 hr, AHR activating ligand, such as TCDD, kynurenine, ITE (2-(1H-indole-3-ylcarbonyl)-4-thiazolecarboxylic methyl ester), VAF347, BNF (beta-naphthoflavone), FICZ (6-formylindolo(3,2-b) carbazole or other AHR ligands, is added with or without AHR antagonist for 24 hours, after which media will be removed and stored at −80 C for later cytokine analysis. At the end of the incubation, medium is aspirated off the CRC cells, and the cells washed with 100 μL of cold PBS solution. RNA is extracted via the TaqMan™ Gene Expression Cells-to-CT™ Kit (ThermoFisher) according to the manufacturer's protocol. The QuantStudio 6 Flex (Applied Biosciences) is used to analyze mRNA levels of CYP1A1 using GAPDH as the endogenous control. TaqMan™ probe sets for both genes are acquired from ThermoFisher. Samples are run in triplicate and data is analyzed using the QuantStudio software and reported as linear and log 2(ΔΔCT) values. Statistical analysis is performed using a two-tailed t-test comparing CYP1A1 levels in the presence of each individual compound to the vehicle negative control. […] This assay can be used to confirm the inhibitory effect of the compounds prior to testing using an in vivo model.

The target in the next series is T1, CYP3A4 (Homo sapiens, UniProt P08684).
T1 construct: from tissue; host or cells: human liver microsomes (HLM)
Kind of series: CYP Inhibition Assay in human liver microsomes, CYP3A4. It counts as in vitro ADME. As to conditions: pH 7.4. On the procedure: Stock solutions of test compounds were prepared in DMSO at the concentrations of 10 mM. Stock solution was diluted to 2 mM with acetonitrile. The final concentration of test compounds was 10 μM. For the stock solution preparation, if the positive control could not be well dissolved in the mixture of DMSO and acetonitrile (1:4) at the highest concentration, another mixture of acetonitrile and DMSO, the mixture of acetonitrile and H2O or DMSO will be used to dissolve the compound.
The substrate solutions are stored in a −20° C. freezer and warmed to room temperature prior to use.
Preparation of Phosphate Buffer (100 mmol/L, pH 7.4): To prepare the Solution A, 7.098 g of disodium hydrogen phosphate were weighed out and added into 500 mL of pure water, then sonicated to dissolve the content. To prepare the Solution B, 3.400 g of potassium dihydrogen phosphate were weighed out and added into 250 mL of pure water, then sonicated to dissolve the content. Solution A was placed on a stirrer and slowly Solution B was added into Solution A until the pH reached 7.4. Preparation of 10 mmol/L NADPH Solution: NADPH was dissolved at 8.334 mg/mL in phosphate buffer; the solution was freshly prepared prior to use.
The master solution was prepared according to Table 45. The incubation was carried out in 96 deep well plates. The following volumes were dispensed into each well of the incubation plate: 179 μL of the substrate and HLM mixture in phosphate buffer, 1 μL of the compound working solution, or vehicle (mixture of DMSO and acetonitrile (1:4)). The incubation plate was placed into the water bath and pre-warmed at 37° C. for 15 minutes before the reactions was started by the addition of 20 μL of 10 mmol/L NADPH solution in phosphate buffer. After the addition of NADPH, the incubation plate was incubated at 37° C. for corresponding time. The assay was performed in duplicate.
The reaction was quenched by the addition of 1.5 volume (300 μL) of cold acetonitrile containing 3% formic acid and internal standards (200 nM Labetalol, 200 nM Alprazolam and 200 nM tolbutamide). The plate was centrifuged at 3,220 g for 40 minutes. 100 μL of the supernatant was transferred to a new plate. The supernatant was diluted with 100 μL pure water. The samples were mixed well and analyzed using UPLC/MS/MS.
Data Analysis: The automatic peak integration areas are checked for all the samples. The Analyte Peak Area and Internal Standard Peak Area are exported into excel spreadsheet. The inhibition of each P450 enzyme in human liver microsomes is measured as the percentage decrease in the activity of marker metabolite formation compared to non-inhibited controls (=100% activity).
The percentage of remaining activity was calculated as follows: […]
On the technique in general: Microsomes from liver hold many membrane-bound enzymes, among them those of drug oxidation.

SMILES strings stand for the structures.

What is called IC50 is the concentration that inhibits the measured activity by half. For orientation: inhibition means the share of the control response that was lost under treatment. Read a high inhibition as a response far below the control.

T1 sequence (P08684 whole entry): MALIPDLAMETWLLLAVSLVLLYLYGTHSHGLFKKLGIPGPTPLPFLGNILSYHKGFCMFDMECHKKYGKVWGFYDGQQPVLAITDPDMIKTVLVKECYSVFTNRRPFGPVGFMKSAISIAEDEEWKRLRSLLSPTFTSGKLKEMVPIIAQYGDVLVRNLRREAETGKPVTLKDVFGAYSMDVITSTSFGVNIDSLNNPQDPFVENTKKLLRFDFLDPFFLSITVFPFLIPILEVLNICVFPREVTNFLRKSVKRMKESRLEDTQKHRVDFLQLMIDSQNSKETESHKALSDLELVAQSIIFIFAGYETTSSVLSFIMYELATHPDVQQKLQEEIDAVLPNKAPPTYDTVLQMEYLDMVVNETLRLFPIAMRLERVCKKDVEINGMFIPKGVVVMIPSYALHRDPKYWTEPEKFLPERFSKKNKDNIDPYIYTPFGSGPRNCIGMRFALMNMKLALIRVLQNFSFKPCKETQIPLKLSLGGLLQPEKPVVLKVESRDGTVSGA

As for `C[C@@H](CO)n1cnc2c(-c3cccc(F)c3)nc(-c3ccc(Cl)cc3)cc2c1=O` [Compound 7], in series [1], the “Human liver microsome clearance” value was “+++ (“+++” indicates a Clint value less than 10 mL/min/Kg)”.

Regarding `CC(C)(O)Cn1cnc2c(-c3cccnc3)nc(-c3ccc(C(F)(F)F)nc3)cc2c1=O` [Compound 9], in series [2], half-maximal inhibition (IC50) required 2.7 nM and the “Mouse CYP1A1 % eff” value is reported as roughly 55%.

For `C[C@@H](CO)n1cnc2c(-c3cccnc3)nc(-c3ccc(C(F)(F)F)nc3)cc2c1=O` [Compound 12], the “Human liver microsome clearance” value in series [1] is given as “+++ (“+++” indicates a Clint value less than 10 mL/min/Kg)”.

In the case of `CC(C)(O)Cn1cnc2c(-c3cccnc3)nc(-c3ccc(C(F)(F)F)cc3)cc2c1=O` [Compound 16], the “Human liver microsome clearance” value in series [1] is “+++ (“+++” indicates a Clint value less than 10 mL/min/Kg)”.

With `Cc1ccc(-c2cc3c(=O)n([C@@H](C)CO)cnc3c(-c3cccnc3)n2)cc1` [Compound 17, (S)-3-(1-hydroxypropan-2-yl)-8-(pyridin-3-yl)-6-(p-tolyl)pyrido[3,4-d]pyrimidin-4(3H)-one], the “Human liver microsome clearance” value in series [1] was “+ (“+” indicates a Clint above 20 mL/min/Kg)”.

The molecule `CC(C)(O)Cn1cnc2c(-c3cccnc3)nc(-c3ccc(Cl)cc3)cc2c1=O` [Compound 18] showed an inhibition at 10 µM at CYP3A4 of 35.2%. Besides, the “Human liver microsome clearance” value in series [1] is “+++ (“+++” indicates a Clint value less than 10 mL/min/Kg)”.

In the case of `Cn1cc(-c2nc(-c3ccc(Cl)cc3)cc3c(=O)n(CC(C)(C)O)cnc23)cn1` [Compound 21], in series [1], the “Human liver microsome clearance” value is listed as “+++ (“+++” indicates a Clint value less than 10 mL/min/Kg)”.

As to `C[C@@H](CO)n1cnc2c(-c3cccnc3)nc(-c3ccc(OC(F)(F)F)cc3)cc2c1=O` [Compound 22], the “Human liver microsome clearance” value in series [1] is “+++ (“+++” indicates a Clint value less than 10 mL/min/Kg)”.

Consider `C[C@@H](CO)n1cnc2c(-c3cccnc3)nc(-c3ccc(C(F)(F)F)cc3)cc2c1=O` [Compound 23], for which the “Human liver microsome clearance” value in series [1] is on record as “+++ (“+++” indicates a Clint value less than 10 mL/min/Kg)”.

For the molecule `C[C@@H](CO)n1cnc2c(-c3cnn(C)c3)nc(-c3ccc(OC(F)(F)F)cc3)cc2c1=O` [Compound 25], in series [1], the “Human liver microsome clearance” value is given as “+++ (“+++” indicates a Clint value less than 10 mL/min/Kg)”.

As for `C[C@@H](CO)n1cnc2c(-c3cnn(C)c3)nc(-c3ccc(Cl)cc3)cc2c1=O` [Compound 27], the “Human liver microsome clearance” value in series [1] is “+++ (“+++” indicates a Clint value less than 10 mL/min/Kg)”.

Consider `C[C@H](n1cnc2c(-c3cnn(C)c3)nc(-c3ccc(Cl)cc3)cc2c1=O)C(C)(C)O` [Compound 30], for which 10 µM produced 12.2% inhibition against CYP3A4. Also, in series [2], the concentration for half-maximal inhibition (IC50) is 2.9 nM and the “Mouse CYP1A1 % eff” value was roughly 56%.

On to `C[C@H](n1cnc2c(-c3cccnc3)nc(-c3cccnc3)cc2c1=O)C(C)(C)O` [Compound 34], for which the “Human liver microsome clearance” value in series [1] is on record as “+++ (“+++” indicates a Clint value less than 10 mL/min/Kg)”.

On to `C[C@@H](CO)n1cnc2c(-c3cccnc3)nc(-c3ccc(C(F)(F)F)cn3)cc2c1=O` [Compound 46, (S)-3-(1-hydroxypropan-2-yl)-8-(pyridin-3-yl)-6-(5-(trifluoromethyl)pyridin-2-yl)pyrido[3,4-d]pyrimidin-4(3H)-one], for which the inhibition at 10 µM against CYP3A4 came out at 2.26%. For the same molecule, in series [2], the half-inhibitory concentration (IC50) was found to be 18.5 nM and the “Mouse CYP1A1 % eff” value is roughly 96%.

The molecule `O=c1c2cc(-c3ccc(Cl)cc3)nc(-c3cccnc3)c2ncn1[C@H]1COC[C@@H]1O` [Compound 125, 6-(4-chlorophenyl)-3-((3S,4R)-4-hydroxytetrahydrofuran-3-yl)-8-(pyridin-3-yl)pyrido[3,4-d]pyrimidin-4(3H)-one] returned an inhibition at 10 µM against CYP3A4 of 23.8%.

The record behind these values is patent publication US20230295152A1 (SENDA BIOSCIENCES, INC., priority 2019, published 2023).
